Experimental findings from patent US20250011295A1, “USE OF 3-ARYLPHTHALIDES AND DERIVATIVES THEREOF AS ANTI-INFLAMMATORY AGENTS” (UNIVERSIDAD DE CÁDIZ, priority 2021, published 2025) are described below.

What all share (format): cell-based
For data set [1], the system named is Nos2. Put plainly: Nos2 expression inhibition (qPCR) in retinal explants from BB rat. The conditions noted are these: retinal explant, 20 μM for 24 h. The protocol:
(§1) Anti-inflammatory activity was determined using organotypic cultures or retinal and kidney explants from a murine model which develops type 1 or autoimmune diabetes mellitus spontaneously, i.e., BioBreeding (BB) rat. This animal model of type 1 diabetes mellitus reproduces disease progression in a manner similar to that occurring in patients. Tissues, retina, and kidney are extracted, maintaining cytoarchitecture and tissue connections of each of the organs, from BB rats that are 7 weeks old, which is the time before the presence of constant hyperglycemia, which appears around weeks 9-11 of life. A prediabetic model with active inflammatory parameters that resemble those occurring during the progression of type 1 diabetes mellitus in patients is thereby obtained. The cultured explants were treated with 3-(2,4-dihydroxyphenyl)phthalide (compound III) at a dose of 20 μM for 24 h.
(§2) Activation of the inflammatory process induces nitric oxide synthase, Nos2, gene expression, with messenger RNA quantification being determined by means of the quantitative PCR technique (qPCR), and can show inflammatory response modulation in retinal and kidney explants from an animal model with type 1 or autoimmune diabetes mellitus.

The subject of data set [2] is renal tubular cell lines, MCT. Put plainly: Nitrite production inhibition (Greiss colorimetric technique) in cytokine-stimulated MCT cells. The note with it: for % of reduction in nitrite production: cytokine cocktail 10 ng·mL^−1, compound 10 μM; for Nitrite production, LPS or cytokines + Compound (10 μM): cytokine cocktail (TNFα, IL1β, IFNγ, TFGβ) 10 ng·mL^−1, compound 10 μM, baseline = 1.00. On the procedure: (§3) Anti-inflammatory activity was measured on Bv.2 microglial cell line (innate immune system of the central nervous system), macrophages, Raw 264.7 cell line (peripheral immune system), renal tubular cell lines, MCT (renal tubule epithelials) and pancreatic beta cells, INS-1 (insulin-producing cells targeted in the process leading to diabetes mellitus). […] The activation of the inflammatory process induces the secretion of nitrites (NO2) into the medium, so the induction and modulation of the inflammatory response by 3-(4,5-dihydroxy-2-(2-ethylthio)ethylphenyl)phthalide and 3-(2,4-dihydroxyphenyl)phthalide can be determined by means of the Greiss colorimetric technique.
(§4) Tables 1 and 2 show the results of the nitrite production inhibitory activity caused by compounds II and III (10 μM), respectively, on LPS-stimulated Bv2 and Raw264.7 cell lines and on cytokine-stimulated MCT and INS-1 cell lines.

Data set [3] relates to macrophages, Raw 264.7 cell line. Put plainly: Nitrite production inhibition (Greiss colorimetric technique) in LPS-stimulated Raw 264.7 cells. The note with it: LPS 2 μg·mL^−1, compound 10 μM; for Nitrite production, LPS or cytokines + Compound (10 μM): baseline = 1.00. On the procedure:
as §3, §4

Data set [4] concerns Bv.2 microglial cell line. Put plainly: Nitrite production inhibition (Greiss colorimetric technique) in LPS-stimulated Bv.2 cells. The conditions noted are these: LPS 2 μg·mL^−1, compound 10 μM; for Nitrite production, LPS or cytokines + Compound (10 μM): baseline = 1.00. The protocol: as §3, §4
The test system of data set [5] is Nos2. Put plainly: Nos2 expression inhibition (qPCR) in kidney explants from BB rat. The note with it: kidney explant, 20 μM for 24 h. On the procedure: as §1, §2
Data set [6] deals with pancreatic beta cells, INS-1. Put plainly: Nitrite production inhibition (Greiss colorimetric technique) in cytokine-stimulated INS-1 cells. The note with it: for % of reduction in nitrite production: cytokine cocktail 10 ng·mL^−1, compound 10 μM; for Nitrite production, LPS or cytokines + Compound (10 μM): cytokine cocktail (TNFα, IL1β, IFNγ, TFGβ) 10 ng·mL^−1, compound 10 μM, baseline = 1. On the procedure:
as §3, §4

Data set [7] has as its system Bv.2, Raw 264.7, MCT and INS-1 cell lines. Put plainly: Cytotoxic effect in treated cell lines. The note with it: any of the treated cell lines.
Where [8] appears, read: 7 weeks old BB rat, untreated BB rat = 1.00.

With `O=C1OC(c2ccc(O)cc2O)c2ccccc21` (stereo not shown) [Compound III, 3-(2,4-dihydroxyphenyl)phthalide], the results for the “Nos2 expression, BB rat + 3-(2,4-dihydroxyphenyl)phthalide (20 μM)” value in data set [1] (setting [8]) and in data set [5] (setting [8]) were 0.482 ± 0.05 and 0.348 ± 0.05, respectively. The “% of reduction of Nos2 expression” value in data set [1] (BB rat) worked out at 51.8%; in data set [5] (BB rat), 65.2%. Moreover, the “% of reduction in nitrite production” value in data set [2] turned out to be 83.14%; in data set [3], 33.38%; in data set [4], 62.92%; in data set [6] it was 65.32%. Further, the “Nitrite production, LPS or cytokines + Compound (10 μM)” value in data set [2] is reported as 1.53 ± 0.06; in data set [3], 3.60 ± 0.42; in data set [4], 3.47 ± 0.27; in data set [6], 1.48 ± 0.02. Moreover, the cytotoxic effect entry in data set [7] (increasing doses for 24 h until the maximum concentration of 50 μM) is given as “no cytotoxic effect was detected”.

As for `CCSCCc1cc(O)c(O)cc1C1OC(=O)c2ccccc21` (stereo not shown) [Compound II, 3-(4,5-dihydroxy-2-(2-ethylthio)ethylphenyl)phthalide], the “% of reduction in nitrite production” value in data set [2] was 77.91%; in data set [3], 79.88%; in data set [4], 48.31%; in data set [6] it was 18.82%. In addition, the “Nitrite production, LPS or cytokines + Compound (10 μM)” value in data set [2] was 1.788 ± 0.29; in data set [3] it was 1.38 ± 0.43; in data set [4], 1.98 ± 0.203; in data set [6], 3.644 ± 0.004. Also, the cytotoxic effect result in data set [7] (increasing doses for 24 h until the maximum concentration of 25 μM) is “no cytotoxic effect was detected”.
